Like-named read-outs stand apart in the source and are kept apart here.
How the values were obtained:
CYP2C19 = CYP2C19 (Homo sapiens, UniProt P33261); experiment: Inhibition of C152 metabolism, SS
[1] = tested on: human liver microsomes (HLM); experiment: Inhibition of C152 metabolism, HLM; format: biochemical; conditions: 30 μM C152 as substrate
CYP2B6 = molecular target: T1, CYP2B6 (Homo sapiens, UniProt P20813); experiment: Inhibition of C152 metabolism, SS
T1 sequence (P20813 1-491): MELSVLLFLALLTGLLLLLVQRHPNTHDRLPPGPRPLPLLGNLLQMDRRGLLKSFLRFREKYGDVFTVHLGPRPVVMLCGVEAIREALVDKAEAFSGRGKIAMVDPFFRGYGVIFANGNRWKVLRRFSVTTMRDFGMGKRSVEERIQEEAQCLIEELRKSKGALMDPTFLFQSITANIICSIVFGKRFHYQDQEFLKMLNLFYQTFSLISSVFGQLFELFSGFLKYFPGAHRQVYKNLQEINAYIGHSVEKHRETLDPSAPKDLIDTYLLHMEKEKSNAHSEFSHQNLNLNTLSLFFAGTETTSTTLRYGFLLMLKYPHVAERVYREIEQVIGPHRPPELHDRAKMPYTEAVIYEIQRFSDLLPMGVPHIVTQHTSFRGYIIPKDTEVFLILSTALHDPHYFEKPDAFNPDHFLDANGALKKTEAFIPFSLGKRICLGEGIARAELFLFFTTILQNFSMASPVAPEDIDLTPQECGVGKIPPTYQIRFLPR

CYP1A2 = molecular target: T2, CYP1A2 (Homo sapiens, UniProt P05177); experiment: C152 metabolism; format: in vitro ADME; conditions: SS(1A2); initial substrate C152 28 μM; scanning fluorimetry
T2 sequence (P05177 2-516 limits assumed): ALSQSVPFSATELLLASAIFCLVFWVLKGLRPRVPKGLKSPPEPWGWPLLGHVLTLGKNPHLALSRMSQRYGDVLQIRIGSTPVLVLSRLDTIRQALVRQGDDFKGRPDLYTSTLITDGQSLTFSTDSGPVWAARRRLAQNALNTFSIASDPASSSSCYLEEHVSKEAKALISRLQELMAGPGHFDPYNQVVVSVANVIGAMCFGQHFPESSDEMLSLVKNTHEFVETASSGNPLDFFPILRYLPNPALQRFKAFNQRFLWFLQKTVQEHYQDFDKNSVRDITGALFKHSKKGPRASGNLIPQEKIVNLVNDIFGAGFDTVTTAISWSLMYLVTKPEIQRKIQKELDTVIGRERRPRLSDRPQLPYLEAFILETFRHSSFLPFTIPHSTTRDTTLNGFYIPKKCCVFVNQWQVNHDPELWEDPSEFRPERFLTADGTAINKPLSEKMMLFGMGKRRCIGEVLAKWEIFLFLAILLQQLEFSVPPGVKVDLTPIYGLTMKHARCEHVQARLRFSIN

CYP3A4 = CYP3A4 (Homo sapiens, UniProt P08684); experiment: Inhibition of C152 metabolism, SS
CYP3A4, sequence (P08684 2-503 limits assumed): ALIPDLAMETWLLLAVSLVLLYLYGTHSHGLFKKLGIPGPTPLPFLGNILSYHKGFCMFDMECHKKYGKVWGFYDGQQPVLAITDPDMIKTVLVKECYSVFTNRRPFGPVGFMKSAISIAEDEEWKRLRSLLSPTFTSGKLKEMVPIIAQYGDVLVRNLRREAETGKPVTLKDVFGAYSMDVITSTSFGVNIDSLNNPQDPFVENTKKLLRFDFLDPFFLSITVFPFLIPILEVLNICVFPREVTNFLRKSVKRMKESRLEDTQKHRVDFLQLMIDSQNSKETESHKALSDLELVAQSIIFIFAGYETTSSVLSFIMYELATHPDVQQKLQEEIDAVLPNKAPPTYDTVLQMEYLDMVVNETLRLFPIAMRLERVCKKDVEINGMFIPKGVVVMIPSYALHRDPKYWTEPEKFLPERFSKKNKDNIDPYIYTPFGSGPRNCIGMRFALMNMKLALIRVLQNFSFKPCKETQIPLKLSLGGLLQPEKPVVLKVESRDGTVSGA

[2] = SS(3A4), 30 μM C152 as substrate
[3] = SS(2B6), 30 μM C152 as substrate

CYP2C19, sequence (P33261 whole entry): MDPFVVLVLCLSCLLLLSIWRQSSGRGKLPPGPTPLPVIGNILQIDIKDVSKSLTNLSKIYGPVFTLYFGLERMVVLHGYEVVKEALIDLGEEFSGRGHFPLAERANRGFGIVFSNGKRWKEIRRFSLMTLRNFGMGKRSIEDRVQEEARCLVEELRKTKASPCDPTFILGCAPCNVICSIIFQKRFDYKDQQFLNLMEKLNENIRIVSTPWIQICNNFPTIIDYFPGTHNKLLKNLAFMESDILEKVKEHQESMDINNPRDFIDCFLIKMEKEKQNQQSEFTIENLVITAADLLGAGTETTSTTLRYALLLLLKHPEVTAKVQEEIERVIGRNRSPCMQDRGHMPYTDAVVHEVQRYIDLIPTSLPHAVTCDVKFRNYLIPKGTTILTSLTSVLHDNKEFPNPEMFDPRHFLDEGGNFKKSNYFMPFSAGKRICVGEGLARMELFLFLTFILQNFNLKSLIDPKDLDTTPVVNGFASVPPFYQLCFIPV

| SMILES | IC50 (CYP2C19) [µM] | IC50 [1] [µM] | Inhibition (maximal amplitude) [1] [%] | IC50 (CYP2B6) [µM] | other results |
| --- | --- | --- | --- | --- | --- |
| Clc1ccccc1C(c1ccccc1)(c1ccccc1)n1ccnc1 [CTZ, clotrimazole] | 0.2 ± 0.11 | – | – | – | – |
| CC(=O)N1CCN(c2ccc(OCC3COC(Cn4ccnc4)(c4ccc(Cl)cc4Cl)O3)cc2)CC1 (stereo not drawn) [KCZ, ketoconazole] | – | 1.9 ± 0.2 | 89±7 | 9.5 ± 2.8 | – |
| CNc1ccc2c(C(F)(F)F)cc(=O)oc2c1 [DC152, 7-methylamino-4-trifluoromethyl coumarin] | – | – | – | – | maximal level of formation of DC152 (CYP1A2): ~ 4 μM |
| CC[C@@]1(c2ccccc2)NC(=O)N(Cc2ccccc2)C1=O [BNVL, (S)-(+)-N-3-benzylnirvanol] | – | 0.51 ± 0.03 | – | – | IC50 (CYP3A4; [2]): 27 ± 3 µM; Inhibition (maximal amplitude) (CYP3A4; [2]): 59±10%; IC50 (CYP2B6; [3]): 8.5 ± 2.3 µM; Inhibition (maximal amplitude) (CYP2B6; [3]): 81±7% |
| Clc1ccc(Cc2ccncc2)cc1 [CBP, 4-(4-Chlorobenzyl)pyridine] | 215 ± 118 | 225 ± 30 | 88±12 | 0.038 ± 0.016 | IC50 (CYP3A4): 225 ± 73 µM |
